Source: PubChem BioAssay (NCI)
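Dose response: 5 concentrations. Exposure: 48 h. Format: 96-well plates. Endpoint: linear interpolation; highest concentration if not reached. TGI denotes the concentration required for complete inhibition of growth.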

Columns and labels:
Test in all cases: NCI tumour cell line growth inhibition, 48 h
[1] = system: A498 renal
[2] = system: A549 NSCLC
[3] = system: EKVX NSCLC
[4] = system: HT29 colon
[5] = system: IGROV1 ovarian
[6] = system: NCI-H460 lung
[7] = system: NCI-H522 lung
[8] = system: OVCAR-4 ovarian
[9] = system: OVCAR-5 ovarian
[10] = system: P388/ADR leukemia
[11] = system: SF-539 CNS
[12] = system: SK-MEL-28 melanoma
[13] = system: SK-MEL-5 melanoma
[14] = system: SN12C renal
[15] = system: SN12K1 renal
[16] = system: SNB-75 CNS
[17] = system: U251 CNS
[18] = system: UACC-257 melanoma
[19] = system: UACC-62 melanoma
[20] = system: CAKI-1 renal

Structure (SMILES) | TGI [1] | TGI [2] | TGI [3] | TGI [4] | TGI [5] | TGI [6] | TGI [7] | TGI [8] | TGI [9] | TGI [10] | TGI [11] | TGI [12] | TGI [13] | TGI [14] | TGI [15] | TGI [16] | TGI [17] | TGI [18] | TGI [19] | TGI [20]
Cc1cc(N=Nc2ccc(N=Nc3c(O)c(S(=O)(=O)O)cc4cc(S(=O)(=O)O)ccc34)cc2C)ccc1N=Nc1ccc2cc(S(=O)(=O)O)cc(S(=O)(=O)O)c2c1 | > 100 µM | > 100 µM | > 100 µM | > 31.6 µM | > 100 µM | > 100 µM | > 100 µM | > 100 µM | > 100 µM | > 100 µM | > 100 µM | > 100 µM | > 100 µM | > 100 µM | > 100 µM | > 100 µM | > 100 µM | > 100 µM | > 100 µM | 
Cn1c(=O)c2nc(N3CCCCC3)cnc2n(C)c1=O | > 100 µM | > 100 µM | > 100 µM | > 100 µM | > 100 µM | > 100 µM | > 100 µM | > 100 µM | > 100 µM |  | > 100 µM | > 100 µM | > 100 µM | > 100 µM |  | > 100 µM | > 100 µM | > 100 µM | > 100 µM | > 100 µM
CC1=C2C(O)C(C(C)C(=O)NC(C)C)CCC2(C)C=CC1=O (configuration not stated) | > 100 µM | > 100 µM | > 100 µM | > 100 µM | > 100 µM | > 100 µM | > 100 µM | > 100 µM | > 100 µM | > 100 µM | > 100 µM | > 100 µM | > 100 µM | > 100 µM | > 100 µM | > 100 µM | > 100 µM | > 100 µM | > 100 µM | > 100 µM
COc1cc2c(cc1OC)C(Cc1c3ccccc3cc3ccccc13)N(C)CC2 (configuration not stated) | 43.6 µM | > 100 µM | 96.8 µM | 31 µM | 65.4 µM | 61.3 µM | 60 µM | > 100 µM | 40.2 µM | 35 µM | 47.1 µM | 46.8 µM | 35.3 µM | > 100 µM | 30.3 µM | 37.2 µM | 35.6 µM | 35.5 µM | 40.8 µM | > 100 µM
CCOC(=O)NC(=O)c1cn(CCSCCOC(=O)NCCCCCCNC(=O)OCCSCCn2cc(C(=O)NC(=O)OCC)c(=O)[nH]c2=O)c(=O)[nH]c1=O |  | > 100 µM | > 100 µM | > 100 µM | > 100 µM | > 100 µM |  | > 100 µM |  |  | > 100 µM | > 100 µM | > 100 µM | > 100 µM |  | > 100 µM | > 100 µM | > 100 µM | > 100 µM | > 100 µM
